Where two headings read alike, the source gives them in different places.
What was measured:
[1] = tested on: Eastern Subterranean Reticulitermes flavipes termites; assay: Transfer effects among nestmates (donor/recipient Petri dish arenas); format: in vivo; details: Reticulitermes flavipes, donors treated with 50 ppm
Protocol: (§1) The purpose of this study was to determine whether there is transference of […] among nestmates of subterranean termites. Arenas for this study consisted of a 15 cm Petri dish. […] Donor and untreated marked control termites were marked using RustOleum® Marking Paint, using methodology described by Keefer et al. 2012.
(§2) Two untreated soldier termites for each species were added to each arena to simulate colony dynamics. Post-treatment observations for mortality were made at 4 h and then daily through day 7.

[2] = tested on: Formosan Coptotermes formosanus termites; assay: as above; format: in vivo; details: donors treated with 50 ppm; for mortality at 50 ppm: Coptotermes formosanus
Protocol: as §1, §2

[3] = 96 h, donor:recipient ratio 15:5, 4 d, read-out: Mean total % mortality of donors and recipients
[4] = 120 h, by treatment (all ratios), 5 d, read-out: Mean % mortality of donors and recipients
[5] = 120 h, donor:recipient ratio 1:19, 5 d, read-out: Mean total % mortality of donors and recipients
[6] = 120 h, donor:recipient ratio 5:15, 5 d, read-out: Mean total % mortality of donors and recipients
[7] = 120 h, donor:recipient ratio 10:10, 5 d, read-out: Mean total % mortality of donors and recipients
[8] = 120 h, donor:recipient ratio 15:5, 5 d, read-out: Mean total % mortality of donors and recipients
[9] = 144 h, by treatment (all ratios), 6 d, read-out: Mean % mortality of donors and recipients
[10] = 144 h, donor:recipient ratio 1:19, 6 d, read-out: Mean total % mortality of donors and recipients
[11] = 144 h, donor:recipient ratio 5:15, 6 d, read-out: Mean total % mortality of donors and recipients
[12] = 144 h, donor:recipient ratio 10:10, 6 d, read-out: Mean total % mortality of donors and recipients
[13] = 144 h, donor:recipient ratio 15:5, 6 d, read-out: Mean total % mortality of donors and recipients
[14] = 168 h, by treatment (all ratios), 7 d, read-out: Mean % mortality of donors and recipients
[15] = 168 h, donor:recipient ratio 1:19, 7 d, read-out: Mean total % mortality of donors and recipients
[16] = 168 h, donor:recipient ratio 5:15, 7 d, read-out: Mean total % mortality of donors and recipients
[17] = 168 h, donor:recipient ratio 10:10, 7 d, read-out: Mean total % mortality of donors and recipients
[18] = 168 h, donor:recipient ratio 15:5, 7 d, read-out: Mean total % mortality of donors and recipients

For `N#Cc1nn(-c2c(Cl)cc(C(F)(F)F)cc2Cl)c(N)c1[S+]([O-])C(F)(F)F` [Fipronil, 5-amino-1-[2,6-dichloro-4-(trifluoromethyl)phenyl]-4-[(1-R,S)(trifluoromethyl)sulfinyl]-1H-pyrazole-3-carbonitrile], the mortality at 50 ppm [1, 3] was 100%, the mortality at 50 ppm [1, 4] was 83.8% and the mortality at 50 ppm [1, 5] was 52.5%. The mortality at 50 ppm [1, 6] was 82.5%, the mortality at 50 ppm [1, 7] was 100% and the mortality at 50 ppm [1, 8] was 100%. For the same compound, the mortality at 50 ppm [1, 9] was 98.1%, the mortality at 50 ppm [1, 10] was 97.5% and the mortality at 50 ppm [1, 11] was 95%. It also gave a mortality at 50 ppm [1, 12] of 100%, a mortality at 50 ppm [1, 13] of 100% and a mortality at 50 ppm [1, 14] of 100%. The mortality at 50 ppm [1, 15] was 100%, the mortality at 50 ppm [1, 16] was 100% and the mortality at 50 ppm [1, 17] was 100%. It also gave a mortality at 50 ppm [1, 18] of 100%, a mortality at 50 ppm ([2]; 4 h, donor:recipient ratio 1:19, 4 h, read-out: Mean total % mortality of donors and recipients) of 0% and a mortality at 50 ppm ([2]; 4 h, donor:recipient ratio 5:15, 4 h, read-out: Mean total % mortality of donors and recipients) of 3.75%. It also gave a mortality at 50 ppm ([2]; 4 h, donor:recipient ratio 10:10, 4 h, read-out: Mean total % mortality of donors and recipients) of 17.5%, a mortality at 50 ppm ([2]; 4 h, donor:recipient ratio 15:5, 4 h, read-out: Mean total % mortality of donors and recipients) of 16.2% and a mortality at 50 ppm ([2]; 24 h, by treatment (all ratios), 1 d, read-out: Mean % mortality of donors and recipients) of 50.6%. The mortality at 50 ppm ([2]; 24 h, donor:recipient ratio 1:19, 1 d, read-out: Mean total % mortality of donors and recipients) was 0%, the mortality at 50 ppm ([2]; 24 h, donor:recipient ratio 5:15, 1 d, read-out: Mean total % mortality of donors and recipients) was 2.5% and the mortality at 50 ppm ([2]; 24 h, donor:recipient ratio 10:10, 1 d, read-out: Mean total % mortality of donors and recipients) was 100%. For the same compound, the mortality at 50 ppm ([2]; 24 h, donor:recipient ratio 15:5, 1 d, read-out: Mean total % mortality of donors and recipients) was 100%, the mortality at 50 ppm ([2]; 48 h, by treatment (all ratios), 2 d, read-out: Mean % mortality of donors and recipients) was 53.1% and the mortality at 50 ppm ([2]; 48 h, donor:recipient ratio 1:19, 2 d, read-out: Mean total % mortality of donors and recipients) was 8.75%. It also gave a mortality at 50 ppm ([2]; 48 h, donor:recipient ratio 5:15, 2 d, read-out: Mean total % mortality of donors and recipients) of 3.75%, a mortality at 50 ppm ([2]; 48 h, donor:recipient ratio 10:10, 2 d, read-out: Mean total % mortality of donors and recipients) of 100% and a mortality at 50 ppm ([2]; 48 h, donor:recipient ratio 15:5, 2 d, read-out: Mean total % mortality of donors and recipients) of 100%. For the same compound, the mortality at 50 ppm ([2]; 72 h, by treatment (all ratios), 3 d, read-out: Mean % mortality of donors and recipients) was 59.7%, the mortality at 50 ppm ([2]; 72 h, donor:recipient ratio 1:19, 3 d, read-out: Mean total % mortality of donors and recipients) was 18.8% and the mortality at 50 ppm ([2]; 72 h, donor:recipient ratio 5:15, 3 d, read-out: Mean total % mortality of donors and recipients) was 20%. The mortality at 50 ppm ([2]; 72 h, donor:recipient ratio 10:10, 3 d, read-out: Mean total % mortality of donors and recipients) was 100%, the mortality at 50 ppm ([2]; 72 h, donor:recipient ratio 15:5, 3 d, read-out: Mean total % mortality of donors and recipients) was 100% and the mortality at 50 ppm ([2]; 96 h, by treatment (all ratios), 4 d, read-out: Mean % mortality of donors and recipients) was 67.8%. It also gave a mortality at 50 ppm ([2]; 96 h, donor:recipient ratio 1:19, 4 d, read-out: Mean total % mortality of donors and recipients) of 25%, a mortality at 50 ppm ([2]; 96 h, donor:recipient ratio 5:15, 4 d, read-out: Mean total % mortality of donors and recipients) of 46.2% and a mortality at 50 ppm ([2]; 96 h, donor:recipient ratio 10:10, 4 d, read-out: Mean total % mortality of donors and recipients) of 100%. For the same compound, the mortality at 50 ppm [2, 3] was 100%, the mortality at 50 ppm [2, 4] was 82.5% and the mortality at 50 ppm [2, 5] was 30%. The mortality at 50 ppm [2, 6] was 100%, the mortality at 50 ppm [2, 7] was 100% and the mortality at 50 ppm [2, 8] was 100%. For the same compound, the mortality at 50 ppm [2, 9] was 85.5%, the mortality at 50 ppm [2, 10] was 30% and the mortality at 50 ppm [2, 11] was 100%. It also gave a mortality at 50 ppm [2, 12] of 100%, a mortality at 50 ppm [2, 13] of 100% and a mortality at 50 ppm [2, 14] of 90%. For the same compound, the mortality at 50 ppm [2, 15] was 60%, the mortality at 50 ppm [2, 16] was 100% and the mortality at 50 ppm [2, 17] was 100%. The mortality at 50 ppm [2, 18] was 100%, the “Mean % mortality of donors and recipients” value ([2]; by treatment (all ratios), 4 h) was 9.37 b % and the “Mean % mortality of donors and recipients” value ([2]; by treatment (all ratios), 4 h, listed as fipronil) was 1%.
